Activity calls are given as the source filed them.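 The calls were made as follows: active = fitted dose curve reaches 40% lysis signal rise at or below the highest valid concentration tested for that sample; inconclusive = flat fit between 30% and 70%, or poor curve fit; inactive = signal falls, stays flat within 30%, or no crossing.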
System: C. neoformans lysis, adenylate kinase release luminescence, 4 h
Experiment: inducers of Cryptococcus neoformans cell lysis, dose response, AK release luminescence, cherry-picks (AID 687000)

## COCCNC(=O)C[C@H]1C[C@@H]2c3cc(NC(=O)C4CCC4)ccc3O[C@@H]2[C@H](CO)O1
  AC40: > 15 µM (inactive)
